Key:
[1] = molecular target: T1, β3 integrin cytoplasmic domain (Homo sapiens, UniProt P05106); assay: Phage binding to immobilized GST-β3cyto
T1 sequence (P05106 742-788 limits assumed): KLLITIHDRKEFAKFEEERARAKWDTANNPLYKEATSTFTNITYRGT
Method: (§1) FIG. 18. Binding of β3 cytoplasmic domain-selected phage to immobilized proteins. GST fusion proteins or GST alone were coated on microtiter wells at 10 μg/ml and used to bind phage-expressing endostatin targeting peptides. […] The data represent the mean colony counts from triplicate wells, with standard error of less than 10% of the mean.
β3 and β5 cytoplasmic domain-binding peptides were isolated by screening multiple phage libraries with recombinant GST fusion proteins that contained either GST-β3cyto or GST-β5cyto coated onto microtiter wells. Immobilized GST was used as a negative control for enrichment during the panning of each cytoplasmic domain. Phage were sequenced from randomly selected clones after three rounds of panning as disclosed elsewhere (Koivunen et al., Biotechnology 13:265-270, 1995; Pasqualini et al., 1995). Distinct sequences were isolated that interacted specifically with the β3 or with the β5 cytoplasmic domains (Table 4). Randomly selected clones from panning rounds II and III were sequenced. […] The ratios were calculated by dividing the number of colonies recovered from β3-GST-coated wells and those recovered from GST or BSA.
The specificity of the interaction with β3 or β5 cytoplasmic domains was determined by calculating the ratios of phage bound to the cytoplasmic domain containing-fusion proteins (β3 or β5) versus GST alone (negative control). […]

[2] = molecular target: T2, β5 integrin cytoplasmic domain (Homo sapiens, UniProt P18084); assay: Phage binding to immobilized GST-β5cyto; settings: phage colonies
T2 construct: screenings involving the β5 cytoplasmic domain fusion protein
T2 sequence (P18084 743-799 limits assumed): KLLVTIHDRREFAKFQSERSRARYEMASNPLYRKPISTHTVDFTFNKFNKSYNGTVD
Method: as §1, with “19.” for “18.”, “β5” for “β3”, “binding” for “targeting”, “error” for “error of”
β3 and β5 cytoplasmic domain-binding peptides were isolated by screening multiple phage libraries with recombinant GST fusion proteins that contained either GST-β3cyto or GST-β5cyto coated onto microtiter wells. Immobilized GST was used as a negative control for enrichment during the panning of each cytoplasmic domain. Phage were sequenced from randomly selected clones after three rounds of panning as disclosed elsewhere (Koivunen et al., Biotechnology 13:265-270, 1995; Pasqualini et al., 1995). Distinct sequences were isolated that interacted specifically with the β3 or with the β5 cytoplasmic domains (Table 4). Randomly selected clones from panning rounds II and III were sequenced. Amino acid sequences of the phagemid encoded peptides were deduced from nucleotide sequences. The ratios were calculated by dividing the number of colonies recovered from β3-GST-coated wells and those recovered from GST or BSA.
A similar strategy was used to determine the specificity of the phage isolated in the screenings involving the β5 cytoplasmic domain fusion protein.

SK-RC-49/APA cells = assay: Phage binding specificity assay on SK-RC-49/APA cells; assay type: cell-based; settings: soluble peptide, not shown
Method: The cell binding assay was performed with an input of 10^9 TU as described for the cell panning. The specificity was confirmed by adding […] (SEQ ID NO:56) peptide to the binding medium in increasing concentrations. For phage binding on immunocaptured APA, wells were blocked for 1 h at room temperature with PBS/3% BSA and incubated with 10^9 TU for 1 h at room temperature in 50 μl PBS/3% BSA. After eight washes in PBS/1% BSA/0.01% Tween-20 and two washes in PBS, phage were rescued by adding 200 μl of exponentially growing K91Kan E. coli. Each experiment was repeated at least three times.

HUVECs [3] = assay: Three-dimensional cell culture on Matrigel; assay type: cell-based, human; settings: HUVECs on three-dimensional matrix gel, not shown
Method: Matrigel (Collaborative Research, Bedford, Mass.) was added at 100 μl per well to 48-well tissue culture plates and allowed to solidify for 10 min at 37° C. HUVECs were starved for 24 h in M199 medium supplemented with 2% FCS before being harvested in PBS containing 2.5 mM EDTA. 10^4 cells were gently added to each of the triplicate wells and allowed to adhere to the gel coating for 30 min at 37° C. Then, medium was replaced with indicated concentrations of […] (SEQ ID NO:56) or […] (SEQ ID NO:57) peptides in complete medium. The plates were photographed after 24 h with an inverted microscope (Canon). The assay was repeated three times.

[4] = test system: chicken chorioallantoic membrane (CAM); assay: CAM assay for angiogenesis; assay type: in vivo
Method: In vivo angiogenesis was evaluated by a CAM assay (Ribatti et al., 1994). Fertilized eggs from White Leghorn chickens were maintained in constant humidity at 37° C. On the third day of incubation, a square window was opened in the eggshell and 2-3 ml of albumen was removed to detach the developing CAM from the shell. The window was sealed with a glass plate of the same size and the eggs were returned to the incubator. At day 8, 1 mm^3 sterilized gelatin sponges (Gelfoam, Upjohn Co, Kalamazoo, […]) were adsorbed with VEGF-A (20 ng, R&D System) and either […] (SEQ ID NO:56) or control […] (SEQ ID NO:57) peptide (1 mM) in 3 μl PBS and implanted on the top of the growing CAMs under sterile conditions. CAMs were examined daily until day 12 and photographed in ovo with a Leica stereomicroscope. Capillaries emerging from the sponge were counted. The assay was repeated twice.

HUVECs [5] = assay: HUVEC chemotaxis assay (Boyden chamber); assay type: cell-based, human; settings: HUVECs, VEGF-A, not shown
Method: FIG. 33. […] (SEQ ID NO:56) inhibits HUVEC migration. HUVECs were stimulated with VEGF-A (10 ng/ml). The assay was performed in a Boyden microchemotaxis chamber, and cells were allowed to migrate through an 8-μm pore filter for 5 h at 37° C. […] (SEQ ID NO:57) (control) and […] (SEQ ID NO:56) peptides were tested at 1 mM concentration. Migrated cells were stained and five high-power fields (magnitude 100×) for each microwell were counted. Error bars are the standard error of the means of triplicate microwells.
A cell migration assay was performed in a 48-well microchemotaxis chamber (NeuroProbe, Gaithersburg, Md.) according to Bussolini et al. (1995). Polyvinylpyrrolidone-free polycarbonate filters (Nucleopore, Cambridge, Mass.) with 8-μm pores were coated with 1% gelatin for 10 min at room temperature and equilibrated in M199 medium supplemented with 2% FCS. […] (SEQ ID NO:56) or control […] (SEQ ID NO:57) peptide (1 mM) was placed in the lower compartment of a Boyden chamber in M199 medium supplemented with 2% FCS and 10 ng/ml VEGF-A (R&D System). Subconfluent cultures that had been starved overnight were harvested in PBS containing 2.5 mM EDTA, washed once in PBS, and resuspended in M199 medium containing 2% FCS at a final concentration of 2×10^6 cells/ml. […] Five random high-power fields (magnitude 100×) were counted in each well. […]

endothelial cells = assay: Endothelial cell migration (chemotaxis) assay with penetratin peptide chimeras; assay type: cell-based, human; settings: 48-well microchemotaxis chamber
Method: FIG. 25. Effect of penetratin peptide chimeras on endothelial cell migration. Cell migration assay were performed, in a 48-well microchemotaxis chamber. Five random high-power fields (magnitude 40×) were counted in each well.
Cell migration assays were performed as follows: 48-well microchemotaxis chambers were used. Polyvinylpyrrolidone-free polycarbonate filters (Nucleopore, Cambridge, Mass.) with 8-μm pores were coated with 1% gelatin for 10 min at room temperature and equilibrated in M199 medium supplemented with 2% FCS. Peptides were placed in the lower compartment of a Boyden chamber in M199 supplemented with 2% FCS, 20 ng/ml VEGF-A (R&D System), and 1 U/ml heparin. Overnight-starved subconfluent cultures were quickly trypsinized, and resuspended in M199 containing 2% FCS at a final concentration of 2×10^6 cells/ml. After the filter was placed between lower and upper chambers, 50 μl of the cell suspension was seeded in the upper compartment. Cells were allowed to migrate for 5 h at 37° C. in a humidified atmosphere with 5% CO2. The filter was then removed, and cells on the upper side were scraped with a rubber policeman. […] Five random high-power fields (magnitude 40×) were counted in each well.
Cell migration was assayed in a 48-well microchemotaxis chamber. […] Five random high-power fields (magnitude 40×) were counted in each well.

AGWLYMSWK
β3/BSA Ratio ([1]; phage colonies recovered from β3-GST-coated wells divided by BSA): 2.4
β3/GST Ratio ([1]; phage colonies recovered from β3-GST-coated wells divided by GST): 1.8

CKLWQEDGY
β5/BSA Ratio ([2]; β5 versus BSA): 665
β5/GST Ratio ([2]; β5 versus GST): 1.8

GACVRLSACGA [reference compound]
competition with CPKVCPRECESNC phage for binding to SK-RC-49/APA cells (SK-RC-49/APA cells): no competitive activity
formation of capillary-like network (HUVECs [3]): did not affect HUVEC morphogenesis
BLOOD VESSEL NUMBERS ([4]; VEGF-A 20 ng, peptide 1 mM, mean and standard error, two experiments): 56.5 ± 2.12
effect on the number of growing vessels ([4]; not shown): no effect on the number of growing vessels
effect on cell migration or proliferation (HUVECs [5]): no significant effect on cell migration or proliferation

GLDTYRGSP
effect on endothelial cell migration (endothelial cells): increase cell migration

SDNRYIGSW
effect on endothelial cell migration (endothelial cells): increase cell migration

From US8252764B2, “Compositions and methods of use of targeting peptides against placenta and adipose tissues” (priority 2000, dated 2012)
